Structures can show the parent of a compound that is named as a salt.
Tests used:
SW837 = test: combination cScore with sotorasib (Bliss gap around IC50) (%PoC); higher = stronger additive effect
How it was run: (§1)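 Scores represent the average Bliss-independence gap, expected minus measured viability, in a field surrounding both monotherapy IC50s, with the top concentrations used when no IC50 was reached. Cells (NCI-H2122, NCI-H358, SW837) were seeded at 500 or 800 per well in 384-well plates, dosed in matrices at 24 h and grown for 72 h, with SW837 grown for 144 h. Viability was measured by CellTiter-Glo, normalised to vehicle wells and fitted with four-parameter curves.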

NCI-H2122 = test: as above
How it was run: as §1

| SMILES | combination cScore with sotorasib (SW837) | combination cScore with sotorasib (NCI-H2122) |
| --- | --- | --- |
| Cn1c(=O)n(-c2ccc(C(C)(C)C#N)cc2)c2c3cc(-c4cnc5ccccc5c4)ccc3ncc21 [NVP-BEZ235] + C=CC(=O)N1CCN(c2nc(=O)n(-c3c(C)ccnc3C(C)C)c3nc(-c4c(O)cccc4F)c(F)cc23)[C@@H](C)C1 [sotorasib] | 7.37 | 12 |
| Cc1cn(-c2cc(NC(=O)c3ccc(C)c(Nc4nccc(-c5cccnc5)n4)c3)cc(C(F)(F)F)c2)cn1 [Nilotinib] + C=CC(=O)N1CCN(c2nc(=O)n(-c3c(C)ccnc3C(C)C)c3nc(-c4c(O)cccc4F)c(F)cc23)[C@@H](C)C1 [sotorasib] | 14.3 | 6.86 |
| COC(=O)c1ccc2c(c1)NC(=O)/C2=C(\Nc1ccc(N(C)C(=O)CN2CCN(C)CC2)cc1)c1ccccc1 [Nintedanib] + C=CC(=O)N1CCN(c2nc(=O)n(-c3c(C)ccnc3C(C)C)c3nc(-c4c(O)cccc4F)c(F)cc23)[C@@H](C)C1 [sotorasib] | 0.78 | 11.8 |
| CN1CCN(c2ccc(-c3cccc(CN4CCOCC4)c3)cc2NC(=O)c2c[nH]c(=O)cc2C(F)(F)F)CC1 [OICR-9429] + C=CC(=O)N1CCN(c2nc(=O)n(-c3c(C)ccnc3C(C)C)c3nc(-c4c(O)cccc4F)c(F)cc23)[C@@H](C)C1 [sotorasib] | 3.36 | 9.62 |
| O=C(O)C(=O)O.[NH-][C@@H]1CCCC[C@H]1[NH-].[Pt+2] [Oxaliplatin] + C=CC(=O)N1CCN(c2nc(=O)n(-c3c(C)ccnc3C(C)C)c3nc(-c4c(O)cccc4F)c(F)cc23)[C@@H](C)C1 [sotorasib] | 3.16 | 13.8 |
| CCCS(=O)(=O)Nc1ccc(F)c(C(=O)c2c[nH]c3ncc(Cl)cc23)c1F [PLX4720] + C=CC(=O)N1CCN(c2nc(=O)n(-c3c(C)ccnc3C(C)C)c3nc(-c4c(O)cccc4F)c(F)cc23)[C@@H](C)C1 [sotorasib] | 2.2 | 17.4 |
| CC(=O)O[C@H]1C(=O)[C@@]2(C)[C@H]([C@H](OC(=O)c3ccccc3)[C@]3(O)C[C@H](OC(=O)[C@H](O)[C@@H](NC(=O)c4ccccc4)c4ccccc4)C(C)=C1C3(C)C)[C@]1(OC(C)=O)CO[C@@H]1C[C@@H]2O [Paclitaxel] + C=CC(=O)N1CCN(c2nc(=O)n(-c3c(C)ccnc3C(C)C)c3nc(-c4c(O)cccc4F)c(F)cc23)[C@@H](C)C1 [sotorasib] | 3.37 | 9.86 |
| Cc1ccc(Nc2nccc(N(C)c3ccc4c(C)n(C)nc4c3)n2)cc1S(N)(=O)=O [Pazopanib] + C=CC(=O)N1CCN(c2nc(=O)n(-c3c(C)ccnc3C(C)C)c3nc(-c4c(O)cccc4F)c(F)cc23)[C@@H](C)C1 [sotorasib] | 2.58 | 9.15 |
| Nc1nc2[nH]cc(CCc3ccc(C(=O)N[C@@H](CCC(=O)O)C(=O)O)cc3)c2c(=O)[nH]1 [Pemetrexed] + C=CC(=O)N1CCN(c2nc(=O)n(-c3c(C)ccnc3C(C)C)c3nc(-c4c(O)cccc4F)c(F)cc23)[C@@H](C)C1 [sotorasib] | 16.4 | 1.36 |
| CC(C)(C)c1cc(NC(=O)Nc2ccc(-c3cn4c(n3)sc3cc(OCCN5CCOCC5)ccc34)cc2)no1 [Quizartinib] + C=CC(=O)N1CCN(c2nc(=O)n(-c3c(C)ccnc3C(C)C)c3nc(-c4c(O)cccc4F)c(F)cc23)[C@@H](C)C1 [sotorasib] | -4.13 | -1.22 |
| Cc1ncc(NC(=O)c2cccc(C(F)(F)F)c2)cc1-c1cnc(OC2CCOCC2)c(N2CCOCC2)c1 [RAF-709] + C=CC(=O)N1CCN(c2nc(=O)n(-c3c(C)ccnc3C(C)C)c3nc(-c4c(O)cccc4F)c(F)cc23)[C@@H](C)C1 [sotorasib] | 5.38 | 3.48 |
| CO[C@H]1C[C@@H]2CC[C@@H](C)[C@@](O)(O2)C(=O)C(=O)N2CCCC[C@H]2C(=O)O[C@H]([C@H](C)C[C@@H]2CC[C@@H](O)[C@H](OC)C2)CC(=O)[C@H](C)/C=C(\C)[C@@H](O)[C@@H](OC)C(=O)[C@H](C)C[C@H](C)/C=C/C=C/C=C/1C [Rapamycin] + C=CC(=O)N1CCN(c2nc(=O)n(-c3c(C)ccnc3C(C)C)c3nc(-c4c(O)cccc4F)c(F)cc23)[C@@H](C)C1 [sotorasib] | 10.2 | 13.4 |
| CNC(=O)c1cc(Oc2ccc(NC(=O)Nc3ccc(Cl)c(C(F)(F)F)c3)c(F)c2)ccn1 [Regorafenib] + C=CC(=O)N1CCN(c2nc(=O)n(-c3c(C)ccnc3C(C)C)c3nc(-c4c(O)cccc4F)c(F)cc23)[C@@H](C)C1 [sotorasib] | -5.66 | 7.32 |
| COc1cc(OC)c(/C=C/S(=O)(=O)Cc2ccc(OC)c(NCC(=O)O)c2)c(OC)c1 [Rigosertib] + C=CC(=O)N1CCN(c2nc(=O)n(-c3c(C)ccnc3C(C)C)c3nc(-c4c(O)cccc4F)c(F)cc23)[C@@H](C)C1 [sotorasib] | 13.3 | 2.41 |
| C/C=C1\NC(=O)[C@H]2CSSCC/C=C/[C@H](CC(=O)N[C@H](C(C)C)C(=O)N2)OC(=O)[C@H](C(C)C)NC1=O [Romidepsin] + C=CC(=O)N1CCN(c2nc(=O)n(-c3c(C)ccnc3C(C)C)c3nc(-c4c(O)cccc4F)c(F)cc23)[C@@H](C)C1 [sotorasib] | 12.7 | 5.9 |
| N#CC[C@H](C1CCCC1)n1cc(-c2ncnc3[nH]ccc23)cn1 [Ruxolitinib] + C=CC(=O)N1CCN(c2nc(=O)n(-c3c(C)ccnc3C(C)C)c3nc(-c4c(O)cccc4F)c(F)cc23)[C@@H](C)C1 [sotorasib] | 6.8 | 4.05 |
| CC(C)(C)c1ccc(S(=O)(=O)NCc2ccc(C(=O)Nc3cccnc3)cc2)cc1 [STF-31] + C=CC(=O)N1CCN(c2nc(=O)n(-c3c(C)ccnc3C(C)C)c3nc(-c4c(O)cccc4F)c(F)cc23)[C@@H](C)C1 [sotorasib] | 17.6 | -10.2 |
| CNC(=O)c1cc(Oc2ccc(NC(=O)Nc3ccc(Cl)c(C(F)(F)F)c3)cc2)ccn1 [Sorafenib] + C=CC(=O)N1CCN(c2nc(=O)n(-c3c(C)ccnc3C(C)C)c3nc(-c4c(O)cccc4F)c(F)cc23)[C@@H](C)C1 [sotorasib] | -8.41 | 4.75 |
| CCN(CC)CCNC(=O)c1c(C)[nH]c(/C=C2\C(=O)Nc3ccc(F)cc32)c1C [Sunitinib] + C=CC(=O)N1CCN(c2nc(=O)n(-c3c(C)ccnc3C(C)C)c3nc(-c4c(O)cccc4F)c(F)cc23)[C@@H](C)C1 [sotorasib] | 23 | 10.9 |
| Cn1nnc2c(C(N)=O)ncn2c1=O [Temozolomide] + C=CC(=O)N1CCN(c2nc(=O)n(-c3c(C)ccnc3C(C)C)c3nc(-c4c(O)cccc4F)c(F)cc23)[C@@H](C)C1 [sotorasib] | -4.91 | 6.39 |
| C[C@@H]1CCN(C(=O)CC#N)C[C@@H]1N(C)c1ncnc2[nH]ccc12 [Tofacitinib citrate] + C=CC(=O)N1CCN(c2nc(=O)n(-c3c(C)ccnc3C(C)C)c3nc(-c4c(O)cccc4F)c(F)cc23)[C@@H](C)C1 [sotorasib] | 2.98 | 1.35 |
| CC(C)C[C@@H](C(=O)N[C@H](C(=O)OC1CCCC1)c1ccccc1)[C@H](O)C(=O)NO [Tosedostat] + C=CC(=O)N1CCN(c2nc(=O)n(-c3c(C)ccnc3C(C)C)c3nc(-c4c(O)cccc4F)c(F)cc23)[C@@H](C)C1 [sotorasib] | 31.5 | 10.4 |
| CC(=O)Nc1cccc(-n2c(=O)n(C3CC3)c(=O)c3c(Nc4ccc(I)cc4F)n(C)c(=O)c(C)c32)c1 [Trametinib] + C=CC(=O)N1CCN(c2nc(=O)n(-c3c(C)ccnc3C(C)C)c3nc(-c4c(O)cccc4F)c(F)cc23)[C@@H](C)C1 [sotorasib] | 14.5 | 14.2 |
| CC1=C(/C=C/C(C)=C/C=C/C(C)=C/C(=O)O)C(C)(C)CCC1 [Tretinoin] + C=CC(=O)N1CCN(c2nc(=O)n(-c3c(C)ccnc3C(C)C)c3nc(-c4c(O)cccc4F)c(F)cc23)[C@@H](C)C1 [sotorasib] | 15.7 | 10.5 |
| COc1cc2c(NC3CCN(C(C)C)CC3)nc(C3CCCCC3)nc2cc1OCCCN1CCCC1 [UNC0638] + C=CC(=O)N1CCN(c2nc(=O)n(-c3c(C)ccnc3C(C)C)c3nc(-c4c(O)cccc4F)c(F)cc23)[C@@H](C)C1 [sotorasib] | 9.19 | -0.46 |
| CC(C)Nc1cc(-c2c[nH]c(C(=O)N[C@H](CO)c3cccc(Cl)c3)c2)c(Cl)cn1 [Ulixertinib] + C=CC(=O)N1CCN(c2nc(=O)n(-c3c(C)ccnc3C(C)C)c3nc(-c4c(O)cccc4F)c(F)cc23)[C@@H](C)C1 [sotorasib] | 3.35 | -4.67 |
| CS(=O)(=O)c1ccc(-c2cnc(N)c(C(=O)Nc3ccccc3)n2)cc1 [VE-821] + C=CC(=O)N1CCN(c2nc(=O)n(-c3c(C)ccnc3C(C)C)c3nc(-c4c(O)cccc4F)c(F)cc23)[C@@H](C)C1 [sotorasib] | 6.3 | 6.24 |
| CNCc1ccc(-c2cc(-c3nc(-c4ccc(S(=O)(=O)C(C)C)cc4)cnc3N)on2)cc1 [VE-822/VX-970] + C=CC(=O)N1CCN(c2nc(=O)n(-c3c(C)ccnc3C(C)C)c3nc(-c4c(O)cccc4F)c(F)cc23)[C@@H](C)C1 [sotorasib] | -0.45 | 2.89 |
